What is called IC50 is the concentration that gives 50% inhibition. Lower therefore signals greater potency in that assay.

Series [1] in a line: Chemical stability in simulated gastric fluid (SGF). It is filed as physicochemical. Particulars: SGF without enzymes, pH 1,4; 10 μm; 2 hours at 37° C.; substance amount remaining. The procedure, abridged: (§1)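 Compound at 10 μm (diluted from 10 mM DMSO stock) incubated 2 h at 37° C in enzyme-free SGF, pH=1,4, or enzyme-free SIF, pH=6.5. HPLC peak areas before and after incubation give % compound remaining.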

Series [2] is described as follows: Chemical stability in simulated intestinal fluid (SIF). The format is physicochemical. Particulars: SIF without enzymes, pH 6.5; 10 μm; 2 hours at 37° C.; substance amount remaining. The procedure, abridged: as §1
A short description of series [3]: Enzyme stability in human liver S9 fractions. The format is in vitro ADME. Conditions: 0.5 mg/mL pooled human liver S9 fractions; 10 μM compound; 37° C.; pH 7.4; read-out: Stability in liver S9 fractions, Clint. The method, boiled down: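 Compound at 10 μM was incubated at 37 °C with 0.5 mg/mL pooled human liver S9, 2 mM β-NAD and 4 mM MgCl2 in 0.1 M sodium phosphate, pH 7.4, then quenched with acetonitrile and analysed chromatographically. T½ and CLint were derived from the slope of log peak area versus time.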

A further series concerns the target T1, WT EGFR (Wild-Type EGFR) (Homo sapiens, UniProt P00533).
T1 construct: purchased SignalChem
Description: Inhibition of WT EGFR kinase activity (ADP-Glo). The format is biochemical. The method, boiled down: (§2)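 Luminescent ADP-Glo readout was used for both wild-type and L858R/T790M EGFR, each run 180 minutes at 37° C. Reactions used a solution of 50 μM ATP with 0.5 mg/mL peptide substrate. Four-parameter logistic curves gave IC50.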
A general note: ADP-Glo first removes unused ATP, then detects ADP through luciferase.

For series [4], the target named is T2, DM EGFR (DoubleMutantEGFR, L828R/T790M) (Homo sapiens, UniProt P00533, L858R/T790M).
T2 construct: purchased SignalChem
Briefly: Inhibition of DM EGFR kinase activity (ADP-Glo). It is filed as biochemical. Particulars: for IC50: inhibition of kinase activity, EGFR DM (L828R/T790M); for SI, IC50(WT)/IC50(DM): selectivity index, kinase EGFR WT vs EGFR DM. The procedure, abridged: as §2

For series [5], the system named is A549 (lung adenocarcinoma, WT). Briefly: Antiproliferative activity on A549 cells (Alamar Blue). The format is cell-based. Conditions: Homo sapiens, antiproliferative test. The method, boiled down: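 Viability read by Alamar Blue fluorescence (λEx 540, λEm 590 nm) 3-5 h after dye addition, following 72 h compound treatment at 37° C in 2% FBS RPMI-1640, ≤1% DMSO. Seeding 5*10^3 cells/well, 16-18 h attachment. Four-parameter logistic model gave IC50.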
(The colour change of resazurin is a common sign of viable cells or microbes.)

Series [6] deals with HCC827 (lung adenocarcinoma, SM, exon19delE746-A750). Briefly: Antiproliferative activity on HCC827 cells (Alamar Blue). The format is cell-based. Particulars: Homo sapiens, antiproliferative test. The procedure, abridged:
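HCC827 cells (EGFR exon19del E746-A750), 10×10^3/well, attached 16–18 h, then exposed to compounds for 72 h at 37 °C in RPMI-1640 with 2% FBS, ≤1% DMSO. Viability by Alamar Blue fluorescence (ex 540/em 590 nm) after 3–5 h; IC50 by four-parameter logistic fit.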

Take `C=CC(=O)Nc1cc(Nc2nccc(C(=O)c3ccc(N4CCCC4)cc3)n2)c(OC)cc1N(C)CCN(C)C` [EGFR_3365_63, N-(2-((2-(dimethylamino)ethyl)(methyl)amino)-4-methoxy-5-((4-(4-(pyrrolidin-1-yl)benzoyl)pyrimidin-2-yl)amino)phenyl)acrylamide]: the “Stability in SGF, %” value in series [1] was 100.0%. Besides, in series [2], the “Stability in SIF, %” value was 100.0%. Also, in series [3], the Intrinsic clearance in human liver S9 fractions at 10 µM stood at 15.6 µL/min/mg. The IC50 is 22.9 nM against WT EGFR (Wild-Type EGFR), 0.94 nM in series [4], 10.8 µM in series [5] and 4.27 nM in series [6]. In series [4], the “SI, IC50(WT)/IC50(DM)” value is 24.32.
Turning to `C=CC(=O)Nc1cc(Nc2nccc(C(=O)c3ccc(OCCCC)cc3)n2)c(OC)cc1N(C)CCN(C)C` [EGFR_3365_66, N-(5-((4-(4-butoxybenzoyl)pyrimidin-2-yl)amino)-2-((2-(dimethylamino)ethyl)(methyl)amino)-4-methoxyphenyl)acrylamide], in series [1], the “Stability in SGF, %” value is recorded as 100.0%. Also, the “Stability in SIF, %” value in series [2] is 96.5%. In series [3], the Intrinsic clearance in human liver S9 fractions at 10 µM amounted to 1.3 µL/min/mg. The IC50 against WT EGFR (Wild-Type EGFR) amounted to 46.8 nM; in series [4] it was 1.86 nM; in series [5] it was 4.64 µM; in series [6], 12.8 nM. In series [4], the “SI, IC50(WT)/IC50(DM)” value was found to be 25.13.
On to `C=CC(=O)Nc1cc(Nc2nccc(C(=O)c3ccc(OCC)cc3OCC)n2)c(OC)cc1N(C)CCN(C)C` [EGFR_3365_68, N-(5-((4-(2,4-diethoxybenzoyl)pyrimidin-2-yl)amino)-2-((2-(dimethylamino)ethyl) (methyl)amino)-4-methoxyphenyl)acrylamide], for which the “Stability in SGF, %” value in series [1] is on record as 100.0%. The “Stability in SIF, %” value in series [2] is on record as 98.2%. Also, in series [3], the Intrinsic clearance in human liver S9 fractions at 10 µM is 14.5 µL/min/mg. The IC50 at WT EGFR (Wild-Type EGFR) came out at 93.9 nM; in series [4], 9.03 nM; in series [5], 8.14 µM; in series [6], 19.1 nM. Also, the “SI, IC50(WT)/IC50(DM)” value in series [4] was 10.40.
Consider `C=CC(=O)Nc1cc(Nc2nccc(C(=O)c3ccc(OC)cc3OC)n2)c(OC)cc1N(C)CCN(C)C` [EGFR_3365_69, N-(5-((4-(2,4-dimethoxybenzoyl)pyrimidin-2-yl)amino)-2-((2-(dimethylamino)ethyl)(methyl)amino)-4-methoxyphenyl)acrylamide], for which the “Stability in SGF, %” value in series [1] is 100.0%. In series [2], the “Stability in SIF, %” value is reported as 100.0%. Also, in series [3], the Intrinsic clearance in human liver S9 fractions at 10 µM is 14.4 µL/min/mg. The IC50 against WT EGFR (Wild-Type EGFR) was 23.6 nM; in series [4], 2.59 nM; in series [5] it was greater than 10 µM; in series [6] it was 2.46 nM. Moreover, the “SI, IC50(WT)/IC50(DM)” value in series [4] came out at 9.12.
Consider `C=CC(=O)Nc1cc(Nc2nccc(C(=O)c3ccc(OCCC)cc3OCCC)n2)c(OC)cc1N(C)CCN(C)C` [EGFR_3365_70, N-(2-((2-(dimethylamino)ethyl)(methyl)amino)-5-((4-(2,4-dipropoxybenzoyl)pyrimidin-2-yl)amino)-4-methoxyphenyl)acrylamide], for which the “Stability in SGF, %” value in series [1] is 100.0%. Also, the “Stability in SIF, %” value in series [2] is given as 98.6%. In addition, in series [3], the Intrinsic clearance in human liver S9 fractions at 10 µM is 0.7 µL/min/mg. The IC50 on WT EGFR (Wild-Type EGFR) turned out to be 250 nM; in series [4], 14.7 nM; in series [5] it was 4.39 µM; in series [6] it was 36.8 nM. The “SI, IC50(WT)/IC50(DM)” value in series [4] is 16.96.
As for `C=CC(=O)Nc1cc(Nc2nccc(C(=O)c3ccc(N(CC)CC)cc3)n2)c(OC)cc1N(C)CCN(C)C` [EGFR_3365_72, N-(5-((4-(4-(diethylamino)benzoyl)pyrimidin-2-yl)amino)-2-((2-(dimethylamino)ethyl)(methyl)amino)-4-methoxyphenyl)acrylamide], the “Stability in SGF, %” value in series [1] is given as 100.0%. Moreover, the “Stability in SIF, %” value in series [2] is 91.5%. Also, the Intrinsic clearance in human liver S9 fractions at 10 µM in series [3] came to 20.2 µL/min/mg. Besides, the IC50 at WT EGFR (Wild-Type EGFR) stood at 55.9 nM; in series [4], 3.71 nM; in series [5] it was 10.7 µM; in series [6], 13.5 nM. Besides, the “SI, IC50(WT)/IC50(DM)” value in series [4] is recorded as 15.09.
As for `C=CC(=O)Nc1cc(Nc2nccc(C(=O)c3ccc(N(C)C)cc3)n2)c(OC)cc1N(C)CCN(C)C` [EGFR_3365_73, N-(5-((4-(4-(dimethylamino)benzoyl)pyrimidin-2-yl)amino)-2-((2-(dimethylamino)ethyl) (methyl)amino)-4-methoxyphenyl)acrylamide], the “Stability in SGF, %” value in series [1] is reported as 100.0%. The “Stability in SIF, %” value in series [2] is reported as 100.0%. Besides, the Intrinsic clearance in human liver S9 fractions at 10 µM in series [3] came out at 11.1 µL/min/mg. Further, the IC50 was 32.7 nM against WT EGFR (Wild-Type EGFR), 2.35 nM in series [4], 16 µM in series [5] and 4.47 nM in series [6]. For the same compound, the “SI, IC50(WT)/IC50(DM)” value in series [4] is reported as 13.89.
Take `C=CC(=O)Nc1cc(Nc2cc(C(=O)c3ccc(-c4cnn(C)c4)cc3)ccn2)c(OC)cc1N(C)CCN(C)C` [EGFR_3365_85, N-(2-((2-(dimethylamino)ethyl)(methyl)amino)-4-methoxy-5-((4-(4-(1-methyl-1H-pyrazol-4-yl)benzoyl)pyridin-2-yl)amino)phenyl) acrylamide]: the “Stability in SGF, %” value in series [1] is recorded as 100.0%. The “Stability in SIF, %” value in series [2] is listed as 98.4%. The Intrinsic clearance in human liver S9 fractions at 10 µM in series [3] turned out to be 17.8 µL/min/mg. In addition, the IC50 is 60 nM on WT EGFR (Wild-Type EGFR), 8.36 nM in series [4], 1.41 µM in series [5] and 18 nM in series [6]. For the same compound, the “SI, IC50(WT)/IC50(DM)” value in series [4] stood at 7.17.

The record behind these values is patent US20200339544A1 (JOINT STOCK COMPANY "BIOCAD", priority 2017, published 2020).
